Reference: ChEMBL document CHEMBL1921760, “Design, synthesis and biological evaluation of 6-pyridylmethylaminopurines as CDK inhibitors” (Bioorg Med Chem, 2011)

Experiments:
[1] = tested on: CH1; assay: Growth inhibition of doxorubicin-susceptible human CH1 cells after 96 hrs by sulforhodamine B assay; assay type: functional; details: CH1, 96 h
[2] = Inhibition of PKA
[3] = tested on: HT-29; assay: Growth inhibition of human HT-29 cells after 96 hrs by sulforhodamine B assay; assay type: functional; details: HT-29, 96 h
[4] = tested on: HCT-116; assay: Growth inhibition of human HCT116 cells after 96 hrs by sulforhodamine B assay; assay type: functional; details: HCT-116, 96 h
[5] = tested on: CH1; assay: Growth inhibition of doxorubicin-resistant human CH1 cells after 96 hrs by sulforhodamine B assay; assay type: functional; details: CH1, 96 h
[6] = tested on: A2780; assay: Growth inhibition of cisplatin-resistant human A2780 cells after 96 hrs by sulforhodamine B assay; assay type: functional; details: A2780, 96 h
[7] = Metabolic stability in mouse liver microsomes assessed as compound metabolized at 10 uM after 30 mins by LC-MS analysis; assay type: ADME, Microsome; details: read-out: Activity
[8] = tested on: KM12; assay: Growth inhibition of human KM12 cells after 96 hrs by sulforhodamine B assay; assay type: functional; details: KM12, 96 h
[9] = tested on: A2780; assay: Growth inhibition of cisplatin-susceptible human A2780 cells after 96 hrs by sulforhodamine B assay; assay type: functional; details: A2780, 96 h
[10] = biological target: Cyclin-dependent kinase 4/cyclin D1 (Homo sapiens, UniProt P11802); assay: Inhibition of CDK4/cyclin D1; assay type: protein-complex assay
Cyclin-dependent kinase 4/cyclin D1, sequence (P11802 whole entry): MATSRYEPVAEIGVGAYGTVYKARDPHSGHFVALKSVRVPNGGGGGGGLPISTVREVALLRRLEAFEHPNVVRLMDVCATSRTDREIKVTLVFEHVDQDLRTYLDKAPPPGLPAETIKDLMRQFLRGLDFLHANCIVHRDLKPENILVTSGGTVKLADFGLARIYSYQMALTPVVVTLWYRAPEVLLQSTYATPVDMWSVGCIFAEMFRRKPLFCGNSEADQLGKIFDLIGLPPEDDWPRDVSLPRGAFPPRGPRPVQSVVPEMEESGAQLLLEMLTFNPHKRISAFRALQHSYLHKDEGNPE
Cyclin-dependent kinase 4/cyclin D1, sequence (P24385 whole entry, further chain): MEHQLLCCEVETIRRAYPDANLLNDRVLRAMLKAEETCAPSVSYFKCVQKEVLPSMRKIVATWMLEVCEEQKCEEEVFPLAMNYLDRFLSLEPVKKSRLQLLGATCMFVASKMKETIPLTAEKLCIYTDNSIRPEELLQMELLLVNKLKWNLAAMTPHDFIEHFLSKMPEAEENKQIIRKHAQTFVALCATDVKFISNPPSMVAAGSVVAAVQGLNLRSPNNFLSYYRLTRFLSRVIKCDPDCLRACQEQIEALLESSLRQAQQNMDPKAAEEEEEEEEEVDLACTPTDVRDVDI

[11] = biological target: Cyclin-dependent kinase 7/ cyclin H (Homo sapiens, UniProt P50613); assay: Inhibition of CDK7/cyclin H; assay type: protein-complex assay
Cyclin-dependent kinase 7/ cyclin H, sequence (P51946 whole entry): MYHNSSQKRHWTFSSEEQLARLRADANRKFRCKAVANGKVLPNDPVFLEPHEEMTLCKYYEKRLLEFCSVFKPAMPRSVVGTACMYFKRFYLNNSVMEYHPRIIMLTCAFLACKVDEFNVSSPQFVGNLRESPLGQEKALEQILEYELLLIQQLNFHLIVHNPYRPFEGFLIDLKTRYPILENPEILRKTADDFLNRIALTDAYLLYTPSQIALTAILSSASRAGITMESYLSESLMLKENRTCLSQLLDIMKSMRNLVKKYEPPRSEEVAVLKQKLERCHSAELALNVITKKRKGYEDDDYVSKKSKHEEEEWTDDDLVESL
Cyclin-dependent kinase 7/ cyclin H, sequence (P50613 whole entry): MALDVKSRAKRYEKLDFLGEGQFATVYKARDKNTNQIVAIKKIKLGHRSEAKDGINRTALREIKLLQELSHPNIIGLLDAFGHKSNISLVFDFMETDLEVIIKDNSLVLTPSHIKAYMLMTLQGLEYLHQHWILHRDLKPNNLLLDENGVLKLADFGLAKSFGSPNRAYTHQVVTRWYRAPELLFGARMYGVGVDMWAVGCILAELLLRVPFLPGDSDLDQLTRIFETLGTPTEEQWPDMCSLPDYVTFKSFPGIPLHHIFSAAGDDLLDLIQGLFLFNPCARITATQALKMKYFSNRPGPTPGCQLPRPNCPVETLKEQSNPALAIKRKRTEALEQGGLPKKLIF

[12] = biological target: Mitogen-activated protein kinase 1 (Homo sapiens, UniProt P28482); assay: Inhibition of ERK2
Mitogen-activated protein kinase 1, sequence (P28482 whole entry): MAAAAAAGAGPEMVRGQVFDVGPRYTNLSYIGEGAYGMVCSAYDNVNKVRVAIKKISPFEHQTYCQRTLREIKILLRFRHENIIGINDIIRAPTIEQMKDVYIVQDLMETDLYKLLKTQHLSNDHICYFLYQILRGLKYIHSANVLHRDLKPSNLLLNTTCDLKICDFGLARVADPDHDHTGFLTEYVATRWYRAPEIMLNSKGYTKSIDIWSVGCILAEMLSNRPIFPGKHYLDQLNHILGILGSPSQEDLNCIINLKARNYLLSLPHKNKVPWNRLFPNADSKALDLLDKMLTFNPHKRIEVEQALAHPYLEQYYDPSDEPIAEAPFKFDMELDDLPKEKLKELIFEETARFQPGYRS

[13] = biological target: Cyclin-dependent kinase 1/cyclin B1 (Homo sapiens, UniProt P06493); assay: Inhibition of CDK1/cyclin B; assay type: protein-complex assay
Cyclin-dependent kinase 1/cyclin B1, sequence (P06493 whole entry): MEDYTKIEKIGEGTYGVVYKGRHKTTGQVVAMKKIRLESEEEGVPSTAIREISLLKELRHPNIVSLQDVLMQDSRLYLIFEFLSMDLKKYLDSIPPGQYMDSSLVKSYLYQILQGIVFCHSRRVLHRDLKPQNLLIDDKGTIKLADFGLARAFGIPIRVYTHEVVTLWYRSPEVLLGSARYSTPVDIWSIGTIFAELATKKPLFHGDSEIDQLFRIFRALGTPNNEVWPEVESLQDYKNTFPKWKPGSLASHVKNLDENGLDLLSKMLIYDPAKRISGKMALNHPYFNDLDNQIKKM
Cyclin-dependent kinase 1/cyclin B1, sequence (P14635 whole entry, further chain): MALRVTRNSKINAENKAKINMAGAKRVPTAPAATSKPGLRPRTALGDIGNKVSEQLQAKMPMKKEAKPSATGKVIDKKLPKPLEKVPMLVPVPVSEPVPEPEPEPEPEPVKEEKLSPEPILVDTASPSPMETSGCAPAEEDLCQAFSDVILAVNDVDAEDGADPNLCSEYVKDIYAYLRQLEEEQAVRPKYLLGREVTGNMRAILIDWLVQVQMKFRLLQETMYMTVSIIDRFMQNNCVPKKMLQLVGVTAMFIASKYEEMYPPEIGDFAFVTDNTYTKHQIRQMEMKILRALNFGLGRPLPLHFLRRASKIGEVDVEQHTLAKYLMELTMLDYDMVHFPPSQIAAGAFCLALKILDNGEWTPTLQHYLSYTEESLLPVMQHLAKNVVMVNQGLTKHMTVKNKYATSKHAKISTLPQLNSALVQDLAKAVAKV

Row | SMILES | GI50 [1] [µM] | IC50 [2] [µM] | GI50 [3] [µM] | GI50 [4] [µM] | GI50 [5] [µM] | GI50 [6] [µM] | metabolised at 0.5 h, 10 µM [7] [%] | GI50 [8] [µM] | GI50 [9] [µM] | IC50 [10] [µM] | IC50 [11] [µM] | IC50 [12] [µM] | IC50 [13] [µM]
1 | CC[C@@H](Nc1nc(NCc2ccccn2)c2ncn(C(C)C)c2n1)C(C)(C)O | > 50 | > 200 | > 50 | > 50 | > 50 | > 50 | 73 | > 50 | 34 | – | – | – | –
2 | CC[C@@H](Nc1nc(NCc2ccccc2)c2ncn(C(C)C)c2n1)C(C)(C)O | 23 | 191 | 23 | 20 | 19.5 | 23 | 52 | 21 | 15 | – | – | – | –
3 | CC[C@H](Nc1nc(NCc2ccccc2)c2ncn(C(C)C)c2n1)C(C)(C)O | 22 | 200 | 23 | 16 | – | 22 | 73 | 20 | 16 | – | – | – | –
4 | CC[C@H](CO)Nc1nc(NCc2ccccn2)c2ncn(C(C)C)c2n1 | 26 | > 50 | 54 | 26 | 23 | 28 | – | 38 | 21.5 | 3.8 | 0.04 | – | –
5 | CC[C@H](CO)Nc1nc(NCc2cccnc2)c2ncn(C(C)C)c2n1 | 4.8 | > 50 | 5.8 | 4.5 | 16.5 | 6.6 | 54 | 5.5 | 5.2 | 20 | 0.18 | 24 | –
6 | CC[C@H](CO)Nc1nc(NCc2ccncc2)c2ncn(C(C)C)c2n1 | 8.2 | > 50 | 23 | 10 | – | 22 | 3 | 7 | 23 | – | – | – | –
7 | CCC(O)[C@@H](CC)Nc1nc(NCc2ccccn2)c2ncn(C(C)C)c2n1 (mixture of isomers) | 27 | > 200 | > 50 | 29 | 26 | 40 | 88 | 45 | 22 | – | – | – | –
8 | CC[C@@H](Nc1nc(NCc2ccccn2)c2ncn(C(C)C)c2n1)C(O)C(C)C (mixture of isomers) | > 50 | > 200 | > 50 | > 50 | > 50 | > 50 | 94 | > 50 | 40 | – | – | – | –
9 | CC[C@@H](Nc1nc(NCc2ccccn2)c2ncn(C(C)C)c2n1)C(O)C(C)(C)C (mixture of isomers) | 34 | > 200 | 34 | 29 | 27 | > 50 | 93 | 45 | 23 | – | – | – | 200
10 | CC[C@@H](Nc1nc(NCc2ccccc2)c2ncn(C(C)C)c2n1)C(C)O (mixture of isomers) | 5 | > 50 | 18 | 5.4 | 4.6 | 3.8 | 91 | 5.4 | 6.4 | 23 | 0.39 | 43 | –
11 | CCC(O)[C@@H](CC)Nc1nc(NCc2ccccc2)c2ncn(C(C)C)c2n1 (mixture of isomers) | 23 | 139 | 23 | 26 | 18 | 21 | 63 | 23 | 14.5 | – | – | – | –
12 | CC[C@@H](Nc1nc(NCc2ccccc2)c2ncn(C(C)C)c2n1)C(O)C(C)C (mixture of isomers) | 23 | 92 | 13 | 22 | 19 | 21 | 83 | 27 | 17 | – | – | > 200 | –
13 | CC[C@@H](Nc1nc(NCc2ccccc2)c2ncn(C(C)C)c2n1)C(O)C(C)(C)C (mixture of isomers) | 23 | 87 | 14.5 | 24 | 19 | 23 | 79 | 17 | 18.5 | 200 | – | > 200 | –
14 | CCC(O)[C@H](CC)Nc1nc(NCc2ccccn2)c2ncn(C(C)C)c2n1 (mixture of isomers) | 33 | > 200 | > 50 | 29 | 26 | 23 | 85 | > 50 | 21 | – | – | – | –
15 | CC[C@H](Nc1nc(NCc2ccccn2)c2ncn(C(C)C)c2n1)C(O)C(C)C (mixture of isomers) | > 50 | > 200 | > 50 | > 50 | > 50 | > 50 | 23 | > 50 | 35 | – | – | – | 200
16 | CC[C@H](Nc1nc(NCc2ccccn2)c2ncn(C(C)C)c2n1)C(O)C(C)(C)C (mixture of isomers) | > 50 | > 200 | 28 | > 50 | 47 | > 50 | 97 | 36 | 38 | – | – | – | 200
17 | CC[C@H](Nc1nc(NCc2ccccc2)c2ncn(C(C)C)c2n1)C(C)O (mixture of isomers) | 1.75 | > 50 | 4.9 | 1.45 | 1.28 | 3.4 | 67 | 1.9 | 3.3 | 9 | 0.69 | 29 | –
18 | CCC(O)[C@H](CC)Nc1nc(NCc2ccccc2)c2ncn(C(C)C)c2n1 (mixture of isomers) | – | > 200 | 23 | 20 | – | 21 | 67 | 27 | 16 | 20 | 1.1 | – | –
19 | CC[C@H](Nc1nc(NCc2ccccc2)c2ncn(C(C)C)c2n1)C(O)C(C)(C)C (mixture of isomers) | 26 | > 200 | 21.5 | 27 | 21.5 | 23 | 74 | 19 | 21.5 | – | – | > 200 | –
